Values joined by “and” are separate entries in the source; they are usually repeats but may differ in a detail not shown here. Identical values can stand only once. Toxic doses and inconclusive results are not listed. The calls were made as follows: active = survival T/C of 150% or more; inactive = T/C below 125% in these data.
Test system: BDF1 mice, intracerebral L1210 leukemia, survival T/C
Experiment: NCI In Vivo Anticancer Drug Screen. Data for tumor model L1210 Leukemia (intracerebral) in B6D2F1 (BDF1) mice
Conditions: endpoint: mean survival time, higher = longer survival
Method: The antitumor activity of compounds was measured in mice bearing transplantable tumors. Survival or tumor size were measured and the results are expressed as the measurement made in the treated group (T) divided by the measurement made in the vehicle treated control group (C). The tumor model used in this assay is L1210 Leukemia (intracerebral) in B6D2F1 (BDF1) mice

[1] = dose: 100.0 mg/kg/injection, schedule: Q01DX001 (ip), vehicle: carboxymethylcellulose (CMC)
[2] = dose: 250.0 mg/kg/injection, schedule: Q01DX001 (ip), vehicle: carboxymethylcellulose (CMC)
[3] = dose: 6.25 mg/kg/injection, schedule: Q01DX009 (ip), vehicle: saline

Measured: T/C

CC(=O)OCC1OC(n2cnc3c(=S)nc[nH]c32)C(OC(C)=O)C1OC(C)=O (stereo not drawn)
active: dose: 100.0 mg/kg/injection, schedule: Q01DX Z (ip), vehicle: carboxymethylcellulose (CMC) 157 % of control
inactive: dose: 25.0 mg/kg/injection, schedule: Q01DX Z (ip), vehicle: carboxymethylcellulose (CMC) 112 % of control and 117 % of control | dose: 200.0 mg/kg/injection, schedule: Q01DX Z (ip), vehicle: carboxymethylcellulose (CMC) 121 % of control and 87 % of control

NC(C/[N+]([O-])=N/O)C(=O)O (stereo not drawn)
inactive: dose: 25.0 mg/kg/injection, schedule: Q01DX009 (ip), vehicle: other 96 % of control | dose: 50.0 mg/kg/injection, schedule: Q01DX001 (ip), vehicle: other 97 % of control | dose: 50.0 mg/kg/injection, schedule: Q01DX009 (ip), vehicle: other 98 % of control | dose: 100.0 mg/kg/injection, schedule: Q01DX001 (ip), vehicle: other 98 % of control | dose: 100.0 mg/kg/injection, schedule: Q01DX009 (ip), vehicle: other 91 % of control | dose: 200.0 mg/kg/injection, schedule: Q01DX001 (ip), vehicle: other 101 % of control | dose: 400.0 mg/kg/injection, schedule: Q01DX001 (ip), vehicle: other 106 % of control

CSCS(=O)C[C@H](CO)NC(=O)/C=C/c1c(C)[nH]c(=O)[nH]c1=O (stereo partly drawn)
inactive: dose: 1.1 mg/kg/injection, schedule: Q01DX001 (ip), vehicle: carboxymethylcellulose (CMC) 95 % of control | dose: 1.7 mg/kg/injection, schedule: Q01DX001 (ip), vehicle: carboxymethylcellulose (CMC) 101 % of control | dose: 2.6 mg/kg/injection, schedule: Q01DX001 (ip), vehicle: carboxymethylcellulose (CMC) 98 % of control

CC1(NC(=O)N(CCCl)N=O)CCCC1
inactive: dose: 12.5 mg/kg/injection, schedule: Q01DX001 (ip), vehicle: carboxymethylcellulose (CMC) 91 % of control | dose: 25.0 mg/kg/injection, schedule: Q01DX001 (ip), vehicle: carboxymethylcellulose (CMC) 102 % of control | dose: 50.0 mg/kg/injection, schedule: Q01DX001 (ip), vehicle: carboxymethylcellulose (CMC) 100 % of control | [1] 100 % of control
active: dose: 125.0 mg/kg/injection, schedule: Q01DX001 (ip), vehicle: carboxymethylcellulose (CMC) 347 % of control | dose: 187.0 mg/kg/injection, schedule: Q01DX001 (ip), vehicle: carboxymethylcellulose (CMC) 285 % of control | [2] 276 % of control

CC(=O)NC1=C(N2CC2C)C(=O)C(NC(C)=O)=C(N2CC2C)C1=O (stereo not drawn)
inactive: dose: 2.5 mg/kg/injection, schedule: Q01DX009 (ip), vehicle: saline with Tween-80 118 % of control | dose: 2.5 mg/kg/injection, schedule: Q01DX009 (ip), vehicle: saline 111 % of control | dose: 5.0 mg/kg/injection, schedule: Q01DX009 (ip), vehicle: saline with Tween-80 120 % of control | dose: 5.0 mg/kg/injection, schedule: Q01DX009 (ip), vehicle: saline 114 % of control | dose: 10.0 mg/kg/injection, schedule: Q01DX009 (ip), vehicle: saline with Tween-80 94 % of control | dose: 10.0 mg/kg/injection, schedule: Q01DX009 (ip), vehicle: saline 97 % of control | dose: 20.0 mg/kg/injection, schedule: Q01DX009 (ip), vehicle: saline with Tween-80 88 % of control

CC(=O)Nc1ccc2c(Nc3ccc(NS(C)(=O)=O)cc3)c3ccccc3nc2c1
inactive: dose: 1.5 mg/kg/injection, schedule: Q01DX009 (ip), vehicle: saline 89 % of control | dose: 1.5 mg/kg/injection, schedule: Q01DX009 (sc), vehicle: saline 98 % of control | dose: 3.0 mg/kg/injection, schedule: Q01DX009 (ip), vehicle: saline 98 % of control | dose: 3.0 mg/kg/injection, schedule: Q01DX009 (sc), vehicle: saline 105 % of control | [3] 86 % of control | dose: 6.25 mg/kg/injection, schedule: Q01DX009 (sc), vehicle: saline 109 % of control | dose: 12.5 mg/kg/injection, schedule: Q01DX009 (sc), vehicle: saline 98 % of control

CC(=O)OC1CCC(NC(=O)N(CCCl)N=O)CC1 (stereo not drawn)
active: dose: 24.0 mg/kg/injection, schedule: Q01DX001 (ip), vehicle: other 364 % of control | dose: 36.0 mg/kg/injection, schedule: Q01DX001 (ip), vehicle: other 500 % of control | dose: 54.0 mg/kg/injection, schedule: Q01DX001 (ip), vehicle: other 423 % of control

CN1CCN(CCCN2c3ccccc3Sc3ccc(C(F)(F)F)cc32)CC1
inactive: dose: 44.0 mg/kg/injection, schedule: Q04DX003 (ip), vehicle: water 108 % of control

Cc1ncc(CNC(=O)N(CCCl)N=O)c(N)n1
active: [3] 158 % of control | dose: 12.5 mg/kg/injection, schedule: Q01DX009 (ip), vehicle: saline 160 % of control | dose: 25.0 mg/kg/injection, schedule: Q01DX001 (ip), vehicle: saline 153 % of control | dose: 50.0 mg/kg/injection, schedule: Q01DX001 (ip), vehicle: saline 153 % of control
inactive: dose: 6.25 mg/kg/injection, schedule: Q01DX001 (ip), vehicle: saline 104 % of control | dose: 100.0 mg/kg/injection, schedule: Q01DX001 (ip), vehicle: saline 104 % of control

O=NN(CCCl)C(=O)N[C@@H]1CCCC[C@H]1NC(=O)N(CCCl)N=O
active: dose: 150.0 mg/kg/injection, schedule: Q01DX001 (ip), vehicle: carboxymethylcellulose (CMC) 162 % of control | dose: 240.0 mg/kg/injection, schedule: Q01DX001 (ip), vehicle: carboxymethylcellulose (CMC) 166 % of control
inactive: dose: 67.0 mg/kg/injection, schedule: Q01DX001 (ip), vehicle: carboxymethylcellulose (CMC) 118 % of control | dose: 72.0 mg/kg/injection, schedule: Q01DX001 (ip), vehicle: carboxymethylcellulose (CMC) 124 % of control | [1] 124 % of control

O=NN(CCF)C(=O)NC1CSCSC1
inactive: dose: 3.7 mg/kg/injection, schedule: Q01DX001 (ip), vehicle: other 111 % of control | dose: 7.0 mg/kg/injection, schedule: Q01DX001 (ip), vehicle: other 120 % of control and 123 % of control
active: dose: 15.0 mg/kg/injection, schedule: Q01DX001 (ip), vehicle: other 163 % of control | dose: 28.0 mg/kg/injection, schedule: Q01DX001 (ip), vehicle: other 176 % of control | dose: 31.0 mg/kg/injection, schedule: Q01DX001 (ip), vehicle: other 177 % of control and 278 % of control | dose: 41.0 mg/kg/injection, schedule: Q01DX001 (ip), vehicle: other 291 % of control | dose: 62.0 mg/kg/injection, schedule: Q01DX001 (ip), vehicle: other 290 % of control and 337 % of control

C[n+]1ccc(Nc2ccc(NC(=O)c3ccc(Nc4cc[n+](C)c5ccc(N)cc45)cc3)cc2)cc1
inactive: dose: 0.5 mg/kg/injection, schedule: Q01DX009 (ip), vehicle: Klucel (hydroxypropylcellulose) (HPC) 93 % of control | dose: 1.0 mg/kg/injection, schedule: Q01DX009 (ip), vehicle: Klucel (hydroxypropylcellulose) (HPC) 106 % of control | dose: 2.0 mg/kg/injection, schedule: Q01DX009 (ip), vehicle: Klucel (hydroxypropylcellulose) (HPC) 103 % of control | dose: 4.0 mg/kg/injection, schedule: Q01DX009 (ip), vehicle: Klucel (hydroxypropylcellulose) (HPC) 110 % of control | dose: 8.0 mg/kg/injection, schedule: Q01DX009 (ip), vehicle: Klucel (hydroxypropylcellulose) (HPC) 122 % of control

N#CCCNC(=O)N(CCC#N)N=O
inactive: dose: 167.0 mg/kg/injection, schedule: Q01DX001 (ip), vehicle: carboxymethylcellulose (CMC) 102 % of control | [2] 109 % of control

O=NN(CCCl)C(=O)Nc1cccc(C(=O)O)c1
inactive: dose: 8.0 mg/kg/injection, schedule: Q01DX001 (ip), vehicle: carboxymethylcellulose (CMC) 95 % of control | dose: 12.0 mg/kg/injection, schedule: Q01DX001 (ip), vehicle: carboxymethylcellulose (CMC) 108 % of control | dose: 18.0 mg/kg/injection, schedule: Q01DX001 (ip), vehicle: carboxymethylcellulose (CMC) 106 % of control

O=NN(CCO)C(=O)Nc1c[nH]c(=O)[nH]c1=O
inactive: dose: 173.0 mg/kg/injection, schedule: Q01DX001 (ip), vehicle: carboxymethylcellulose (CMC) 100 % of control | dose: 260.0 mg/kg/injection, schedule: Q01DX001 (ip), vehicle: carboxymethylcellulose (CMC) 102 % of control | dose: 400.0 mg/kg/injection, schedule: Q01DX001 (ip), vehicle: carboxymethylcellulose (CMC) 106 % of control

NCCc1ccc(O)c(O)c1
inactive: dose: 100.0 mg/kg/injection, schedule: Q04DX003 (ip), vehicle: saline 102 % of control | dose: 200.0 mg/kg/injection, schedule: Q04DX003 (ip), vehicle: saline 95 % of control | dose: 400.0 mg/kg/injection, schedule: Q04DX003 (ip), vehicle: saline 98 % of control | dose: 800.0 mg/kg/injection, schedule: Q04DX003 (ip), vehicle: saline 97 % of control

— PubChem BioAssay AID252 (DTP/NCI, 2004)
